Results published in patent publication US12156533B2, “Nicotine salt formulations for aerosol devices and methods thereof” (JUUL Labs, Inc., priority 2013, dated 2024).

Conditions: nicotine:tartaric acid 1:2 molar ratio; in PG, VG or any mixture of PG and VG at ambient conditions
Text: As used herein, weight percentage (w/w) refers to the weight of the individual component over the weight of the total formulation.

CN1CCCC1c1cccnc1.O=C(O)C(O)C(O)C(=O)O (stereo not shown) [nicotine bitartrate]
concentration at which no solution is produced: ≥ 0.5 % (w/w) nicotine
